Results as given in paper PMC13439108, “An antibody–drug conjugate active against antibiotic-resistant Neisseria gonorrhoeae” (Proceedings of the National Academy of Sciences of the …, 2026).
Values after ≈ are worked out from the molar mass of the structure shown. Like-named read-outs stand apart in the source and are kept apart here. Where a SMILES comes first, the peptide text is derived from it. [ ]: non-standard residue; d: D form. The star is where a group is joined. d(aIle) = CC[C@H](C)[C@@H](N)C(=O)O; dDab = NCC[C@@H](N)C(=O)O; Octanoyl = CCCCCCCC(=O)*; Dab = NCC[C@H](N)C(=O)O; AEEA = NCCOCCOCC(=O)O

Experiments:
N. gonorrhoeae FA1090 [1] = assay: microbe, parasite or virus in culture; settings: Neisseria gonorrhoeae
Experimental: 37°C, in 5% CO2 then 10 μl aliquots plated onto GCB agar. The MIC was defined as the lowest concentration of an antimicrobial that prevented bacterial growth.
Determination of N. gonorrhoeae resistance to Oct-TriA1
Single colonies of N. gonorrhoeae FA1090 were inoculated into 2 mL of FB media supplemented with 1% Vitox (Oxoid) and grown overnight. After 24 hours, 240 µl of a 1/ 5,000 dilution of FA1090 in 2x FB was added to a 48-well plate containing 2-fold dilutions of either Oct-TriA1-c (final concentration, 12.5 µg/ml to 0.2 µg/ml) or ciprofloxacin (final concentration, 16.4 to 0.001 µg/ml) in a total volume of 480
µl. Plates were incubated at 37 °C, 5% CO2 with shaking (180 rpm). After 24 hours, ODA600 of each well […]
to fresh media containing all concentrations of antimicrobials for a total of 35 days. […]

HK-2 cells [2] = assay: MTT cell viability; format: cell-based, human; settings: n = 3; for MTT (EC50) 4 h: MTT reduction OD570, 4 h
Experimental: HK-2 cells (CRL-2190™, Americab Type Culutre Collection (ATCC)), a proximal renal tubule cell(7), and End1/E6E7 (CRL-2615™, ATCC) upper cervical epithelial cells(8) were cultured in Keratinocyte Serum Free Medium (Invitrogen, Life Technologies Ltd.) with human recombinant EGF (5 ng ml-1) and bovine pituitary extract (0.05 mg ml−1) at 37°C in 5% CO2. […]
Cell viability was assessed by 3-(4,5-dimethylthiazol-2-yl)-2,5-diphenyl-2H-tetrazolium bromide (MTT) assay(9); 200 µl fresh cell media and 250 µg of MTT was added to cells. Plates were Incubated at 37 °C, 5% CO2 for 3 hr then 200 µl of DMSO was added to wells with 25 µl glycine buffer (0.1 M glycine, 0.1 M NaCl pH 10.5) and shaken at 1000 r.p.m. for 10 min. Absorbance was read at OD570 nm. Cell viability was calculated as (sample absorbance – cell free blank/media control absorbance) x100.

HK-2 cells [3] = assay: LDH release cytotoxicity; format: cell-based, human; settings: n = 3; for LDH (EC50) 4 h: 2 × 10^4 cells/well, LDH release OD490, 4 h
Experimental: HK-2 cells (CRL-2190™, Americab Type Culutre Collection (ATCC)), a proximal renal tubule cell(7), and End1/E6E7 (CRL-2615™, ATCC) upper cervical epithelial cells(8) were cultured in Keratinocyte Serum Free Medium (Invitrogen, Life Technologies Ltd.) with human recombinant EGF (5 ng ml-1) and bovine pituitary extract (0.05 mg ml−1) at 37°C in 5% CO2. Cells were seeded in 96-well plates (Corning, Polystyrene) at a density of 2 × 10^4 cells/well 24 hr prior; Triton-X-100 (0.1%) and Digitonin (30 μg ml−1) were used as controls. Lactate dehydrogenase (LDH) release was measured using the Biovision kit; the OD490 was assessed in a SpectraMax M5 plate reader. […]

[4] = tested on: N. gonorrhoeae G97687 (MDR isolate); settings: G97687, MDR isolate resistant to ESCs and azithromycin, microdilution in FB, 24 hr, 37°C, 5% CO2
Experimental: (§1) Determination of Oct-TriA1 Minimum Inhibitory Concentration (MIC)
(§2) N. gonorrhoeae was resuspended in PBS to an ODA600 1.0, and ̴5 × 10^4 CFU added to wells of a microdilution plate containing dilutions of antimicrobials in FB. Plates were incubated for 24 hr at […]
(§3) 37°C, in 5% CO2 then 10 μl aliquots plated onto GCB agar. The MIC was defined as the lowest concentration of an antimicrobial that prevented bacterial growth. […]
(§4) Peptide concentration in ADC preparations
(§5) Peptide concentrations for ADCs were calculated from the antibody concentration, the drug-to-antibody ratio (DAR), and the peptide molecular weight using the following formula:
(§6) Conc. peptide (µg/mL) = Conc. ADC (µg/mL) × DAR x MWpeptide (Da) […]
(§7) Where Conc. ADC is the ADC/ mAb concentration, MWADC is the mAb molecular weight (150 kDa), MWpeptide is the peptide molecular weight and DAR is the average number of peptides per conjugate.
(§8) This formula was used to convert ADC concentrations to peptide concentrations for all assays. […]

N. gonorrhoeae WHO N = settings: microdilution in FB, ~5 × 10^4 CFU, 24 hr, 37°C, 5% CO2
Experimental: (§9) columns (ThermoFisher scientific). Activated mAb was added to 0.9 mg of Oct-TriA1 analogues (synthesised by ISCA Biochemicals, UK) and incubated at room temperature for 60 min. ADCs were dialysed using slide-A-Lyzer cassette (20K MWCO, ThermoFisher scientific) into PBS overnight at 4 °C […]
(§10) MALDI-TOF MS analysis for determination of intact mass mAbs or ADCs with a concentration of 1 mg/mL were acidified with 1% trifluoroacetic acid and mixed with Super DHB matrix, 1 μl was spotted onto an MTP Anchorchip 600/384. For every mAb, three sample spots were prepared from the same solution using three protocols advised by the manufacturer. MALDI-TOF measurements were performed on a Microflex LRF mass spectrometer, equipped with a 60Hz nitrogen laser at 337nm. Number of peptides conjugated was calculated using the MALDI-TOF molecular weights (MW) [MW = M+] of each ADC, the unconjugated antibody (mAb), and the molecular weights of Oct-TriA1 analogues using the following equation.
(§11) Number of peptides = MW ADC − MW mAb […]
as §1, §2, §3, §4, §5, §6, §7, §8

[5] = tested on: N. gonorrhoeae FA1090ΔmtrE; settings: microdilution in FB, ~5 × 10^4 CFU, 24 hr, 37°C, 5% CO2
Experimental: as §9, §10, §11, §1, §2, §3, §4, §5, §6, §7, §8

N. gonorrhoeae WHO P = settings: microdilution in FB, ~5 × 10^4 CFU, 24 hr, 37°C, 5% CO2
Experimental: as §9, §10, §11, §1, §2, §3, §4, §5, §6, §7, §8

N. gonorrhoeae WHO L = settings: microdilution in FB, ~5 × 10^4 CFU, 24 hr, 37°C, 5% CO2
Experimental: as §9, §10, §11, §1, §2, §3, §4, §5, §6, §7, §8

N. gonorrhoeae WHO O = settings: microdilution in FB, ~5 × 10^4 CFU, 24 hr, 37°C, 5% CO2
Experimental: as §9, §10, §11, §1, §2, §3, §4, §5, §6, §7, §8

N. gonorrhoeae MS11ΔIgAP = settings: microdilution in FB, ~5 × 10^4 CFU, 24 hr, 37°C, 5% CO2
Experimental: as §9, §10, §11, §1, §2, §3, §4, §5, §6, §7, §8

N. gonorrhoeae WHO M = settings: microdilution in FB, ~5 × 10^4 CFU, 24 hr, 37°C, 5% CO2
Experimental: as §9, §10, §11, §1, §2, §3, §4, §5, §6, §7, §8

N. gonorrhoeae MS11 = settings: microdilution in FB, ~5 × 10^4 CFU, 24 hr, 37°C, 5% CO2
Experimental: as §9, §10, §11, §1, §2, §3, §4, §5, §6, §7, §8

N. gonorrhoeae WHO F = settings: microdilution in FB, ~5 × 10^4 CFU, 24 hr, 37°C, 5% CO2, lowest concentration preventing growth
Experimental: as §9, §10, §11, §1, §2, §3, §4, §5, §6, §7, §8

N. gonorrhoeae FA1090 [6] = settings: microdilution in FB, ~5 × 10^4 CFU, 24 hr, 37°C, 5% CO2
Experimental: as §9, §10, §11, §1, §2, §3, §4, §5, §6, §7, §8

N. gonorrhoeae WHO K = settings: microdilution in FB, ~5 × 10^4 CFU, 24 hr, 37°C, 5% CO2
Experimental: as §9, §10, §11, §1, §2, §3, §4, §5, §6, §7, §8

N. gonorrhoeae MS11ΔmtrE = settings: microdilution in FB, ~5 × 10^4 CFU, 24 hr, 37°C, 5% CO2
Experimental: as §9, §10, §11, §1, §2, §3, §4, §5, §6, §7, §8

[7] = tested on: N. gonorrhoeae FA1090ΔIgAP; settings: microdilution in FB, ~5 × 10^4 CFU, 24 hr, 37°C, 5% CO2
Experimental: as §9, §10, §11, §1, §2, §3, §4, §5, §6, §7, §8

N. gonorrhoeae WHO G = settings: microdilution in FB, ~5 × 10^4 CFU, 24 hr, 37°C, 5% CO2
Experimental: as §9, §10, §11, §1, §2, §3, §4, §5, §6, §7, §8

human erythrocytes = assay: Hemolysis of human erythrocytes; format: cell-based; settings: concentration of peptide or ADC that lyses 50% of erythrocytes; washed human blood 0.5%, 37°C, 1 hr, OD415; melittin 2.5 µM = 100%, PBS = 0%; n = 3
Experimental: For hemolysis, whole human blood (1 ml; K2EDTA; Cambridge Bioscience) was washed in PBS then 0.5% added to an equal volume of peptides or ADCs in 96-well V-bottomed polypropylene plates and incubated at 37°C for 1 hr. Cells were pelleted at 1,000 × g for 10 min and the absorbance at OD415 measured. Positive (melittin, 2.5 µM, Merck Life Science) and negative (PBS) controls were normalised as 100 and 0% hemolysis, respectively. […]

Structure (SMILES): O=C(O)c1cn(C2CC2)c2cc(N3CCNCC3)c(F)cc2c1=O [ciprofloxacin, reference compound]
- MIC (N. gonorrhoeae FA1090 [1]; FA1090, 24 h, read-out: MIC at start of resistance evolution): 0.002 µg/mL (≈ 0.00604 µM)
- MIC (N. gonorrhoeae FA1090 [1]; FA1090, read-out: MIC after 35 d of resistance evolution): 0.26 µg/mL (≈ 0.785 µM)

Structure (SMILES): CCCCCCCC(=O)N[C@@H](C(=O)N[C@H](CCN)C(=O)NCC(=O)N[C@H](CO)C(=O)N[C@H](Cc1c[nH]c2ccccc12)C(=O)N[C@@H](CO)C(=O)N[C@@H](CCN)C(=O)N[C@H](CCN)C(=O)N[C@@H](Cc1ccccc1)C(=O)N[C@@H](CCC(=O)O)C(=O)N[C@H](C(=O)N[C@@H](C(=O)N[C@@H](C)C(=O)O)[C@@H](C)CC)C(C)C)C(C)C [Oct-TriA1, reference compound]
- MTT (EC50) 4 h (HK-2 cells [2]): 21.15 µg/mL
- MTT (EC50) 24 h (HK-2 cells [2]; MTT reduction OD570, 24 h): 7.93 µg/mL
- MTT (EC50) 48 h (HK-2 cells [2]; MTT reduction OD570, 48 h): 8.07 µg/mL
- LDH (EC50) 4 h (HK-2 cells [3]): 23.19 µg/mL
- LDH (EC50) 24 h (HK-2 cells [3]; LDH release OD490, 24 h): 14.14 µg/mL
- LDH (EC50) 48 h (HK-2 cells [3]; LDH release OD490, 48 h): <0.1 µg/mL
- MIC [4]: 0.2 µg/mL (≈ 0.132 µM)
- MIC ([4]; listed as Oct-Tri1): 0.78 µg/mL (≈ 0.513 µM)
- MIC (N. gonorrhoeae WHO N): 0.39 µg/mL (≈ 0.256 µM)
- MIC [5]: 0.1 µg/mL (≈ 0.0658 µM)
- MIC (N. gonorrhoeae WHO P): 0.39 µg/mL (≈ 0.256 µM)
- MIC (N. gonorrhoeae WHO L): 0.2 µg/mL (≈ 0.132 µM)
- MIC (N. gonorrhoeae WHO O): 0.39 µg/mL (≈ 0.256 µM)
- MIC (N. gonorrhoeae MS11ΔIgAP): 0.39 µg/mL (≈ 0.256 µM)
- MIC (N. gonorrhoeae WHO M): 0.39 µg/mL (≈ 0.256 µM)
- MIC (N. gonorrhoeae MS11): 0.78 µg/mL (≈ 0.513 µM)
- MIC (N. gonorrhoeae WHO F): 0.2 µg/mL (≈ 0.132 µM)
- MIC (N. gonorrhoeae FA1090 [6]): 0.2 µg/mL (≈ 0.132 µM)
- MIC (N. gonorrhoeae WHO K): 0.78 µg/mL (≈ 0.513 µM)
- MIC (N. gonorrhoeae MS11ΔmtrE): 0.2 µg/mL (≈ 0.132 µM)
- MIC [7]: 0.1 µg/mL (≈ 0.0658 µM)
- MIC (N. gonorrhoeae WHO G): 0.39 µg/mL (≈ 0.256 µM)
- Hemolysis (HC50) (human erythrocytes): 39.4 µg/mL

Structure (SMILES): CCCCCCCC(=O)N[C@@H](C(=O)N[C@H](CCN)C(=O)NCC(=O)N[C@H](CO)C(=O)N[C@H](Cc1c[nH]c2ccccc12)C(=O)N[C@@H](CO)C(=O)N[C@@H](CCN)C(=O)N[C@H](CCN)C(=O)N[C@@H](Cc1ccccc1)C(=O)N[C@@H](CCC(=O)O)C(=O)N[C@H](C(=O)N[C@@H](C(=O)N[C@@H](C)C(=O)NCCOCCOCC(=O)N[C@@H](CC(C)C)C(=O)N1CCC[C@H]1C(=O)N[C@@H](CCCNC(=N)N)C(=O)N1CCC[C@H]1C(=O)N1CCC[C@H]1C(=O)N[C@@H](C)C(=O)N1CCC[C@H]1C(=O)N[C@H](C(=O)N[C@@H](Cc1ccccc1)C(=O)N[C@@H](CO)C(=O)NCCOCCOCC(=O)N[C@@H](CS)C(N)=O)C(C)C)[C@@H](C)CC)C(C)C)C(C)C [cl-Oct-TriA1] (Octanoyl-[dV][dDab]G[dS][dW]S[Dab][dDab]FEV[d(aIle)]A[AEEA]LPRPPAPVFS[AEEA]C-NH2)
- MTT (EC50) 4 h (HK-2 cells [2]): 315.43 µg/mL
- LDH (EC50) 4 h (HK-2 cells [3]): >400 µg/mL
